“Also recorded” adds a separate entry of the source.
What was measured:
[1] = test system: cysteine protease(s) and serine protease(s) in OPAL B filtrate; experiment: Overlay zymography of OPAL B filtrate with L-BApNA membrane, with or without inhibitors; format: biochemical, Carica papaya; settings: inhibitor on nitrocellulose membrane; upper band cysteine, lower band serine protease(s)
Protocol: Overlay-zymography was carried out according to the procedure in Vinokurov et al. (2005) with some modifications (FIG. 1). Briefly, a nitrocellulose membrane was soaked in a 1.2 mg/mL L-BApNA solution in water. The membrane was subsequently left to air dry for 5 minutes and then laid on top of the native PAGE gel after running the samples through, which were slightly soaked in their respective running buffers. Two additional experiments were carried out in which membranes were soaked in […] R-alanine, 0.14 M acetic acid, pH 4.3, with either 10 mM DTT or 25 mM cysteine. All zymographies were then incubated in a closed chamber at 37° C. for 30-60 min. The membrane was removed and again left to dry for 5 minutes and the p-nitroaniline was visualized by diazotization.
Diazotization was performed by following the protocol detailed in Hosseininaveh et al. (2009). […]
OPAL B filtrate appears to be a complex mixture of many proteins. Therefore, to individually visualize the protease activities that were detected by spectrophotometry assays, we used a technique called overlay zymography. […]

[2] = test system: proteolytic activity of OPAL B filtrate (cysteine and serine proteases); experiment: Effect of protease inhibitors on L-BApNA proteolytic activity of OPAL B filtrate; format: biochemical, Carica papaya; settings: inhibitor added to OPAL B filtrate
Protocol: (§1) A 1.5 mM stock solution of L-BApNA (B-3133 sigma) was prepared by dissolving 63 mg of L-BApNA in 1.5 ml dimethyl sulfoxide (DMSO), and then made up to 100 ml with water. Hydrolysis of the L-BApNA at the bond between the arginine and the p-nitroaniline moieties releases the chromophore p-nitroaniline, which can be detected by spectroscopy at an absorbance of 410 nm in International Units (IU). IU is defined as the amount of enzyme that causes an increase in absorbance of 0.01 units/min under excess substrate conditions (zero order kinetics). Solids specific activity is expressed in IU/mg, while in the case of liquid formulations, the activity is expressed in IU/mL.
(§2) We therefore previously concluded that the protease activity in OPAL A is essentially due only to the presence of active cysteine proteases. To determine the effect of omitting the heat treatment step, the protease activity in both OPAL A and OPAL B filtrates was tested using an L-BApNA assay. After 10 minutes, E-64 inhibitor was added.
To better understand the non-thiol dependent or non-cysteine proteases in the OPAL B filtrate, enzymatic assays were carried out initially using a Protease Inhibitor Cocktail (PIC) (sigma P2714), containing all the essential protease inhibitors (see Table 3).

[3] = test system: active serine protease in OPAL B filtrate; experiment: Serine protease reactivity probe, SDS PAGE western blotting of OPAL B filtrate; format: biochemical, Carica papaya
From the text: To establish which of the different bands corresponded to a proteolytically active form of subtilase in the OPAL B filtrate, we used a reactivity probe, which specifically labels active serine proteases via a fluorosulfonate group linked to biotin. This reactivity probe can then be visualized on a regular SDS PAGE gel via western blotting technique, using streptavidin-conjugated enzymes such as alkaline phosphatase. Using this technique allowed the visualization of the active serine protease band inhibited by AEBSF treatment at around 50 kDa as shown in FIG. 11.

[4] = test system: cysteine protease activity of OPAL A; experiment: Effect of E-64 on protease activity of OPAL A; format: biochemical, Carica papaya; settings: previously established, unpublished data
Protocol: as §2

[5] = L-BApNA proteolytic activity assay (A410); format: biochemical
Protocol: as §1
To determine the optimal substrate concentration to maintain zero order kinetics throughout experiments, a series of titration runs were carried out with a range of substrate concentrations. The minimum concentration thus found is […] or 1:6 dilution of the stock 1.5 mM solution. […] Phosphate buffer at pH 6 was used in the L-BApNA assays because it gave the highest enzymatic activity reading compared to other buffers.
Hydrolysis of L-BApNA in the presence of protease, at the bond between the arginine and p-nitroaniline moieties, releases the chromophore p-nitroaniline, which can then be detected by spectroscopy at a wavelength of 410 nm. […]

Row | Molecule | inhibition of zymography bands of OPAL B [1] | inhibition of L-BApNA proteolytic activity of OPAL B filtrate [2] | effect on active serine protease band at around 50 kDa labelled by reactivity probe [3] | inhibition of cysteine protease activity of OPAL A [4] | activity of pure latex papain [5]
1 | NCCc1ccc(S(=O)(=O)F)cc1 [AEBSF] | inhibition of lower band | able to halt proteolytic activity | inhibited | – | –
2 | CC(C)C[C@H](NC(=O)[C@H]1C[C@@H]1C(=O)O)C(=O)NCCCCNC(=N)N [E-64, (1S,2S)-2-(((S)-1-((4-Guanidinobutyl)amino)-4-methyl-1-oxopentan-2-yl)carbamoyl) cyclopropane carboxylic acid] | complete inhibition of upper band | did not result in complete inhibition of activity; also recorded: able to halt proteolytic activity | – | essentially abolished | –
3 | pure latex papain: Pure latex papain, reference for specific L-BApNA activity (protein, UniProt P00784 134-345, looked up) Papain: IPEYVDWRQKGAVTPVKNQGSCGSCWAFSAVVTIEGIIKIRTGNLNEYSEQELLDCDRRSYGCNGGYPWSALQLVAQYGIHYRNTYPYEGVQRYCRSREKGPYAAKTDGVRQVQPYNEGALLYSIANQPVSVVLEAAGKDFQLYRGGIFVGPCGNKVDHAVAAVGYGPNYILIKNSWGTGWGENGYIRIKRGTGNSYGVCGLYTSSFYPVKN | – | – | – | – | around 10 IU/mg

Reference: patent publication US20230054563A1, “COMPOSITION AND METHODS OF MANUFACTURE” (Phoenix Eagle Company Pty Ltd, priority 2019, published 2023)
